According to patent publication US8697739B2, “Bicyclic acetyl-CoA carboxylase inhibitors and uses thereof” (Novartis AG, priority 2010, dated 2014):

These molecules were tested against T1, human acetyl-CoA carboxylase 2 (ACC2) (Homo sapiens, UniProt O00763) (assay: Acetyl-CoA carboxylase enzyme assay (malonyl-CoA formation by LC/MS/MS)). Conditions: recombinant human ACC2 (aa 144-2458); read-out: IC50 ACC2.
T1 construct: The cDNA encoding amino acids 144 to 2458 of human acetyl-CoA carboxylase 2; made in house; host or cells: Sf9 insect cells (baculovirus, pFastBac1)
T1 sequence (O00763 144-2458): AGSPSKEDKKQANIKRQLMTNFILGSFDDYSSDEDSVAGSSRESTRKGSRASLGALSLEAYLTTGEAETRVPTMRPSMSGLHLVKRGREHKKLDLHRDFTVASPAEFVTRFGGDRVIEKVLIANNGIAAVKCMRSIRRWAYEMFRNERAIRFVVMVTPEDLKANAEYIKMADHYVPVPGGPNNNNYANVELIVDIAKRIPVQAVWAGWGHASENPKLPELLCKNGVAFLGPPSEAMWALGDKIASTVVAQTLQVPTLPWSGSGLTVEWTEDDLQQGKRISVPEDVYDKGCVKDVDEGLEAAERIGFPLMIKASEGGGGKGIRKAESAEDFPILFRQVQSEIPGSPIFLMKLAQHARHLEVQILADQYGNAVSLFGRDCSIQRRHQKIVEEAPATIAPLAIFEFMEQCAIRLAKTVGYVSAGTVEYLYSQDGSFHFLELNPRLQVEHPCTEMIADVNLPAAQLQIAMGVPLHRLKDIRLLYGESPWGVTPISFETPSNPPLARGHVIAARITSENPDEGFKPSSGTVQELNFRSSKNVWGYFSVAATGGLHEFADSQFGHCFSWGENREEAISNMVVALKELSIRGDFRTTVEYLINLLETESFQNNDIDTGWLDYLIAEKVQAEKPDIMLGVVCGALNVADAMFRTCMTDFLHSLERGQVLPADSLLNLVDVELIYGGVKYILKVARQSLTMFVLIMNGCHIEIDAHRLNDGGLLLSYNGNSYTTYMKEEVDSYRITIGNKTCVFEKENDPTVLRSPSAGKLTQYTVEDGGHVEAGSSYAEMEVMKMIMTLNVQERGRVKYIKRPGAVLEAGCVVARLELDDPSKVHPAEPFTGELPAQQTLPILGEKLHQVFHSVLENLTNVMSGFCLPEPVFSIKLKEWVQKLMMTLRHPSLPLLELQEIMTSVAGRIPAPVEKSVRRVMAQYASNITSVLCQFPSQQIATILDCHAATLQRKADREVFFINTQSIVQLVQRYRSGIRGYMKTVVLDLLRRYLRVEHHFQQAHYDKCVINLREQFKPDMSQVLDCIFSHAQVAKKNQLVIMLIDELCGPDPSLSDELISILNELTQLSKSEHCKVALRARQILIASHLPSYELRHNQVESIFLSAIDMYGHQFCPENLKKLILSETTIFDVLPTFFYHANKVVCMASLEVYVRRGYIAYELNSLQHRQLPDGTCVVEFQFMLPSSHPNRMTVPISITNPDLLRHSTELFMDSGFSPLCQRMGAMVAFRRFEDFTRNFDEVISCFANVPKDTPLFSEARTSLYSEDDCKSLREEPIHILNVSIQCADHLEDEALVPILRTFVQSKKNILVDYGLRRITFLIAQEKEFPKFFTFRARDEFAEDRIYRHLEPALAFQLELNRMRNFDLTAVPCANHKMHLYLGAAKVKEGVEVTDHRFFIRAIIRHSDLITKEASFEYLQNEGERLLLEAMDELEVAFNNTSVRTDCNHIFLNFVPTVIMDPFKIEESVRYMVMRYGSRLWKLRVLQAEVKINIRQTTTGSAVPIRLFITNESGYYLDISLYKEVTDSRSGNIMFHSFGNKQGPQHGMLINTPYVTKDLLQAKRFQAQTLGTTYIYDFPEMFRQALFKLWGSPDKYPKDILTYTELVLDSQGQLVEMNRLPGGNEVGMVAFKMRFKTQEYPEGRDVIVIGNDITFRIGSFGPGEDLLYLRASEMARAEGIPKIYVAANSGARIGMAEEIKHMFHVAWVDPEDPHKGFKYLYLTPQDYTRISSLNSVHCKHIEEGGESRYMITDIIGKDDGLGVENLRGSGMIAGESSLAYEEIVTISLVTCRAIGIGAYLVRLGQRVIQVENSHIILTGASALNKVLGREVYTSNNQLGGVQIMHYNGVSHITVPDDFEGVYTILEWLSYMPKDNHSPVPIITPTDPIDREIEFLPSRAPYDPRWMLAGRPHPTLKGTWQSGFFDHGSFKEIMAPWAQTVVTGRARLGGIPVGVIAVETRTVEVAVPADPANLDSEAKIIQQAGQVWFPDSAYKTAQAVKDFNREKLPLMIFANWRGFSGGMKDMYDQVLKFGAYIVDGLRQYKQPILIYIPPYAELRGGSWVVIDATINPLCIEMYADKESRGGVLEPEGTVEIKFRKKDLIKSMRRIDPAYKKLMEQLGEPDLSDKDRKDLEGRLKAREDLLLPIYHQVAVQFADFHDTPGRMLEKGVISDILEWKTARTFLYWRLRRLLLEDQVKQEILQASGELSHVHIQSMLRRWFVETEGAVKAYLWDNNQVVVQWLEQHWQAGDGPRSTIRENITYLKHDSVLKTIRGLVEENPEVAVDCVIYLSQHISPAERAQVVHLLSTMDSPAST
Assay type: biochemical
Procedure, shortened: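 Malonyl-CoA formation was read by LC/MS/MS MRM against a [13C3]-malonyl-CoA internal standard, after acetic acid quench. The enzyme was baculovirus/Sf9-expressed human ACC2 residues 144–2458, given 15 minutes room-temperature compound preincubation in HEPES pH 7.5 buffer with MgCl2, citrate and DTT. Substrate solution held 50 μM acetyl-CoA, 120 μM ATP and 2 mM KHCO3.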
Cn1c(-c2ccccc2)cc2cc(S(=O)(=O)N[C@H]3CC[C@H](C(=O)N[C@H](CC(=O)O)c4ccccc4)CC3)ccc21 [Example 95, (R)-3-((1r,4R)-4-(1-methyl-2-phenyl-1H-indole-5-sulfonamido)cyclohexanecarboxamido)-3-phenylpropanoic acid] gave an IC50 of 30 nM.
Work on Cn1c(-c2ccc(CCC(=O)O)cc2)cc2ccc(S(=O)(=O)N[C@H]3CC[C@H](C(=O)N4CCCC4C(C)(C)C)CC3)cc21 (stereo partly drawn) [Example 395, 3-(4-(6-(N-((1r,4r)-4-(2-tert-butylpyrrolidine-1-carbonyl)cyclohexyl)sulfamoyl)-1-methyl-1H-indol-2-yl)phenyl)propanoic acid] yielded an IC50 of less than 10 nM.
For CC(C)OC(=O)[C@H]1CC[C@H](NS(=O)(=O)c2ccc3[nH]c(-c4ccc(C(C)O)cc4)nc3c2)CC1 (stereo partly drawn) [Example 556, (1r,4r)-isopropyl 4-(2-(4-(1-hydroxyethyl)phenyl)-1H-benzo[d]imidazole-5-sulfonamido)cyclohexanecarboxylate], the IC50 was 25 nM.
With C[C@@H](NC(=O)[C@H]1CC[C@H](NS(=O)(=O)c2cnc3c(c2)N(C)CCO3)CC1)c1ccc(F)cc1 [Example 131, (1r,4R)-N-((R)-1-(4-fluorophenyl)ethyl)-4-(1-methyl-2,3-dihydro-1H-pyrido[2,3-b][1,4]oxazine-7-sulfonamido)cyclohexanecarboxamide] the IC50 was 173 nM.
In the case of C[C@@H](NC(=O)[C@H]1CC[C@H](NS(=O)(=O)c2cccc3ccccc23)CC1)c1ccc(F)cc1 [Example 678, (1r,4R)-N-((R)-1-(4-fluorophenyl)ethyl)-4-(naphthalene-1-sulfonamido)cyclohexanecarboxamide], the IC50 is reported as 433 nM.
Work on COCCN(C(=O)[C@H]1CC[C@H](NS(=O)(=O)c2ccc3[nH]c(-c4ccccc4)nc3c2)CC1)C1CCCCC1 [Example 676, (1r,4R)-N-cyclohexyl-N-(2-methoxyethyl)-4-(2-phenyl-1H-benzo[d]imidazole-5-sulfonamido)cyclohexanecarboxamide] yielded an IC50 of 23 nM.
Cn1c(-c2ccccc2)cc2cc(S(=O)(=O)N[C@H]3CC[C@H](C(=O)N4CC(C(=O)O)CCC4c4ccccc4)CC3)ccc21 (stereo partly drawn) [Example 93, 1-((1r,4r)-4-(1-methyl-2-phenyl-1H-indole-5-sulfonamido)cyclohexanecarbonyl)-6-phenylpiperidine-3-carboxylic acid] showed an IC50 of 545 nM.
Work on Cn1c(-c2ccccc2)cc2cc(S(=O)(=O)N[C@H]3CC[C@H](C(=O)N4CCN[C@H](C(F)(F)F)C4)CC3)ccc21 [Example 86, 1-methyl-2-phenyl-N-((1S,4r)-4-((S)-3-(trifluoromethyl)piperazine-1-carbonyl)cyclohexyl)-1H-indole-5-sulfonamide] yielded an IC50 of 75 nM.
Molecule C[C@@H](NC(=O)[C@H]1CC[C@H](NS(=O)(=O)c2ccc3nc(C4CCOCC4)[nH]c3c2)CC1)c1ccc(F)cc1 [Example 6, (1r,4R)—N—((R)-1-(4-fluorophenyl)ethyl)-4-(2-(tetrahydro-2H-pyran-4-yl)-1H-benzo[d]imidazole-6-sulfonamido)cyclohexanecarboxamide] has an IC50 of 156 nM.
Molecule C[C@@H](NC(=O)[C@H]1CC[C@H](NS(=O)(=O)c2ccc3c(c2)N(C)CCC3)CC1)c1ccc(F)cc1 [Example 148, (1r,4R)-N-((R)-1-(4-fluorophenyl)ethyl)-4-(1-methyl-1,2,3,4-tetrahydroquinoline-7-sulfonamido)cyclohexanecarboxamide] has an IC50 of 10 nM.
Work on CC(C)OC(=O)c1ccc(NS(=O)(=O)c2ccc3[nH]c(Nc4cccc(-n5ccsc5=O)c4)nc3c2)cc1 [Example 549, isopropyl 4-(2-(3-(2-oxothiazol-3(2H)-yl)phenylamino)-1H-benzo[d]imidazole-5-sulfonamido)benzoate] yielded an IC50 of 737 nM.
With O=C([C@H]1CC[C@H](NS(=O)(=O)c2ccc3[nH]c(Nc4ccccc4)nc3c2)CC1)N1CCOCC1 [Example 584, N-((1r,4r)-4-(morpholine-4-carbonyl)cyclohexyl)-2-(phenylamino)-1H-benzo[d]imidazole-5-sulfonamide] the IC50 was 119 nM.
C[C@@H](NC(=O)[C@H]1CC[C@H](NS(=O)(=O)c2ccc3[nH]c(-c4ccc(F)cc4)nc3c2)CC1)c1ccccc1 [Example 276, (1r,4R)-4-(2-(4-fluorophenyl)-1H-benzo[d]imidazole-5-sulfonamido)-N-((R)-1-phenylethyl)cyclohexanecarboxamide] gave an IC50 of less than 10 nM.
In the case of Cc1cn(C)c2ncc(S(=O)(=O)N[C@H]3CC[C@H](C(=O)N[C@H](C)c4ccc(F)cc4)CC3)cc12 [Example 17], the IC50 is reported as 65 nM.
CC(C)(C)c1nnc([C@H]2CC[C@H](NS(=O)(=O)c3ccc4[nH]c(Nc5ccc(N6CCOCC6)cc5)nc4c3)CC2)o1 [Example 600, N-((1r,4r)-4-(5-tert-butyl-1,3,4-oxadiazol-2-yl)cyclohexyl)-2-(4-morpholinophenylamino)-1H-benzo[d]imidazole-5-sulfonamide] was tested, and the IC50 was 139 nM.
Cc1nc2cc(S(=O)(=O)N[C@H]3CC[C@H](C(=O)N[C@H](C)c4ccccc4)CC3)ccc2[nH]1 [Example 614, (1r,4R)-4-(2-methyl-1H-benzo[d]imidazole-5-sulfonamido)-N-((R)-1-phenylethyl)cyclohexanecarboxamide] was tested, and the IC50 was 142 nM.
Molecule C[C@@H](NC(=O)[C@H]1CC[C@H](NS(=O)(=O)c2ccc3c(c2)OCO3)CC1)c1ccc(F)cc1 [Example 661, (1r,4R)-4-(benzo[d][1,3]dioxole-5-sulfonamido)-N-((R)-1-(4-fluorophenyl)ethyl)cyclohexanecarboxamide] has an IC50 of 733 nM.
With COc1ccc(-c2nc3ccc(S(=O)(=O)Nc4ccc(C(=O)OC(C)C)cc4)cc3[nH]2)cc1 [Example 497, isopropyl 4-(2-(4-methoxyphenyl)-1H-benzo[d]imidazole-6-sulfonamido)benzoate] the IC50 was 762 nM.
Molecule O=C([C@H]1CC[C@H](NS(=O)(=O)c2ccc3c(c2)NCCC3)CC1)N1CCOCC1c1ccccc1 (stereo partly drawn) [Example 178, N-((1r,4r)-4-(3-phenylmorpholine-4-carbonyl)cyclohexyl)-1,2,3,4-tetrahydroquinoline-7-sulfonamide] has an IC50 of 55 nM.
For Cc1cc(-c2ccc3cc(S(=O)(=O)N[C@H]4CC[C@H](C(=O)N5CCNCC5c5ccccc5)CC4)ccc3n2)cc(C)n1 (stereo partly drawn) [Example 254, 2-(2,6-dimethylpyridin-4-yl)-N-((1r,4r)-4-(2-phenylpiperazine-1-carbonyl)cyclohexyl)quinoline-6-sulfonamide], the IC50 was 20 nM.
C[C@H]1COCCN1C(=O)[C@H]1CC[C@H](NS(=O)(=O)c2ccc3c(Cl)c(-c4ccccc4)[nH]c3c2)CC1 [Example 467, 3-chloro-N-((1S,4r)-4-((S)-3-methylmorpholine-4-carbonyl)cyclohexyl)-2-phenyl-1H-indole-6-sulfonamide] was tested, and the IC50 was less than 10 nM.
C[C@@H](NC(=O)[C@H]1CC[C@H](NS(=O)(=O)c2ccc3c(c2)C(NC(=O)C(F)(F)F)CCN3)CC1)c1ccc(F)cc1 (stereo partly drawn) [Example 185, (1r,4R)-N-((R)-1-(4-fluorophenyl)ethyl)-4-(4-(2,2,2-trifluoroacetamido)-1,2,3,4-tetrahydroquinoline-6-sulfonamido)cyclohexanecarboxamide] was tested, and the IC50 was greater than 35000 nM.
For CC1(C)CN(C(=O)[C@H]2CC[C@H](NS(=O)(=O)c3ccc4c(Cl)c(-c5ccccc5)[nH]c4c3)CC2)CCO1 [Example 469, 3-chloro-N-((1r,4r)-4-(2,2-dimethylmorpholine-4-carbonyl)cyclohexyl)-2-phenyl-1H-indole-6-sulfonamide], the IC50 was 90 nM.
For C[C@@H](NC(=O)[C@H]1CC[C@H](NS(=O)(=O)c2ccc3c(c2)c(C#N)cn3C)CC1)c1ccc(F)cc1 [Example 88, (1r,4R)-4-(3-cyano-1-methyl-1H-indole-5-sulfonamido)-N-((R)-1-(4-fluorophenyl)ethyl)cyclohexanecarboxamide], the IC50 was 50 nM.
For Cn1c(-c2ccccc2)cc2ccc(S(=O)(=O)N[C@H]3CC[C@H](C(=O)N[C@@H](c4ccccc4)C(C)(C)C(=O)O)CC3)cc21 [Example 411, (S)-2,2-dimethyl-3-((1r,4S)-4-(1-methyl-2-phenyl-1H-indole-6-sulfonamido)cyclohexanecarboxamido)-3-phenylpropanoic acid], the IC50 was less than 10 nM.
Molecule C[C@@H](NC(=O)[C@H]1CC[C@H](NS(=O)(=O)c2ccc3[nH]c(CC(=O)O)nc3c2)CC1)c1ccc(F)cc1 [Example 668, 2-(5-(N-((1R,4r)-4-((R)-1-(4-fluorophenyl)ethylcarbamoyl)cyclohexyl)sulfamoyl)-1H-benzo[d]imidazol-2-yl)acetic acid] has an IC50 of 124 nM.
COC[C@H]1CCCN1C(=O)[C@H]1CC[C@H](NS(=O)(=O)c2ccc3c(C#N)c(C4CC4)n(C)c3c2)CC1 [Example 418, 3-cyano-2-cyclopropyl-N-((1R,4r)-4-((R)-2-(methoxymethyl)pyrrolidine-1-carbonyl)cyclohexyl)-1-methyl-1H-indole-6-sulfonamide] gave an IC50 of 65 nM.
CC(C)(C)OC(=O)N1CCN(C(=O)C2CCC(NS(=O)(=O)c3ccc4c(c3)CCCN4)CC2)C(c2ccccc2)C1 (stereo not drawn) [Example 173, tert-butyl 3-phenyl-4-((1r,4r)-4-(1,2,3,4-tetrahydroquinoline-6-sulfonamido)cyclohexanecarbonyl)piperazine-1-carboxylate] showed an IC50 of 75 nM.
In the case of C[C@@H](NC(=O)[C@H]1CC[C@H](NS(=O)(=O)c2ccc3c(c2)NCCO3)CC1)c1ccc(F)cc1 [Example 150, (1r,4R)-4-(3,4-dihydro-2H-benzo[b][1,4]oxazine-6-sulfonamido)-N-((R)-1-(4-fluorophenyl)ethyl)cyclohexanecarboxamide], the IC50 is reported as 105 nM.
With Cc1nc2ccc(S(=O)(=O)N[C@H]3CC[C@H](C(=O)N4CCOCC4)CC3)cc2s1 [Example 658, 2-methyl-N-((1r,4r)-4-(morpholine-4-carbonyl)cyclohexyl)benzo[d]thiazole-6-sulfonamide] the IC50 was 71700 nM.
